Here are results for two molecules from ChEMBL document CHEMBL4229518, “New β-lactam - Tetramic acid hybrids show promising antibacterial activities” (Bioorg Med Chem Lett, 2018).

Values after ≈ are worked out from the molar mass of the structure shown. Active and inactive are the calls of the source. The calls are words filed in the database; no cut-off is given here.

A word on the MIC: it is the least concentration at which growth counts as inhibited. A high value points to a need for much substance.

The subject of one assay is Escherichia coli. The experiment in a line: Antimicrobial activity against Escherichia coli ATCC 25922 after 18 to 20 hrs by microbroth dilution method.
Settings: not given
The assay is classed as functional. In general terms: Dilution methods test growth across graded concentrations, often in twofold steps.
For `CO[C@@]1(NC(=O)CCCC(=O)C2=C(O)[C@@H](CCC(=O)O)NC2=O)C(=O)N2C(C(=O)O)=C(CSc3nnnn3C)CS[C@@H]21`, the MIC is 200 µg/mL (≈ 320 µM).

Molecule `CO[C@@]1(NC(=O)CSCC#N)C(=O)N2C(C(=O)O)=C(CSc3nnnn3C)CS[C@@H]21` [CEFMETAZOLE] returned a minimum inhibitory concentration (MIC) of 0.78 µg/mL (≈ 1.65 µM).

In another assay the test system is Escherichia coli. Description: Antimicrobial activity against Escherichia coli BW25113 after 18 to 20 hrs by microbroth dilution method. It is filed as functional.
Settings: not given
With `CO[C@@]1(NC(=O)CCCC(=O)C2=C(O)[C@@H](CCC(=O)O)NC2=O)C(=O)N2C(C(=O)O)=C(CSc3nnnn3C)CS[C@@H]21`, the MIC came out at 200 µg/mL (≈ 320 µM).

In turn, `CO[C@@]1(NC(=O)CSCC#N)C(=O)N2C(C(=O)O)=C(CSc3nnnn3C)CS[C@@H]21` [CEFMETAZOLE] gave an MIC of 0.39 µg/mL (≈ 0.827 µM).

The next assay concerns Escherichia coli. Description: Antimicrobial activity against Escherichia coli isolate SJ 5 after 18 to 20 hrs by microbroth dilution method. The assay is classed as functional.
Settings: not given
`CO[C@@]1(NC(=O)CCCC(=O)C2=C(O)[C@@H](CCC(=O)O)NC2=O)C(=O)N2C(C(=O)O)=C(CSc3nnnn3C)CS[C@@H]21` displayed an MIC of more than 200 µg/mL.

The molecule `CO[C@@]1(NC(=O)CSCC#N)C(=O)N2C(C(=O)O)=C(CSc3nnnn3C)CS[C@@H]21` [CEFMETAZOLE] gave an MIC of 6.25 µg/mL (≈ 13.3 µM).

A further assay deals with Escherichia coli. Description: Antimicrobial activity against Escherichia coli isolate SJ 1 after 18 to 20 hrs by microbroth dilution method.
Settings: not given
It is filed as functional.
`CO[C@@]1(NC(=O)CCCC(=O)C2=C(O)[C@@H](CCC(=O)O)NC2=O)C(=O)N2C(C(=O)O)=C(CSc3nnnn3C)CS[C@@H]21` had an MIC of 200 µg/mL (≈ 320 µM).

Turning to `CO[C@@]1(NC(=O)CSCC#N)C(=O)N2C(C(=O)O)=C(CSc3nnnn3C)CS[C@@H]21` [CEFMETAZOLE], inhibition of growth (MIC) required 0.39 µg/mL (≈ 0.827 µM).

The subject of the next assay is Escherichia coli. Description: Induction of proton motive force collapse in Escherichia coli BW25113 at 100 uM by flow cytometry. It is filed as functional, organism-based.
Settings: not given
In general terms: A flow cytometer gives signals particle by particle.
Turning to `CO[C@@]1(NC(=O)CCCC(=O)C2=C(O)[C@@H](CCC(=O)O)NC2=O)C(=O)N2C(C(=O)O)=C(CSc3nnnn3C)CS[C@@H]21`, the result was inactive.

For another assay, the system named is Escherichia coli. Description: Antimicrobial activity against Escherichia coli ATCC 35218 expressing TEM-1 beta lactamases after 18 to 20 hrs by microbroth dilution method.
Settings: not given
The assay is classed as functional.
For `CO[C@@]1(NC(=O)CCCC(=O)C2=C(O)[C@@H](CCC(=O)O)NC2=O)C(=O)N2C(C(=O)O)=C(CSc3nnnn3C)CS[C@@H]21`, the MIC came to 50 µg/mL (≈ 79.9 µM).

The molecule `CO[C@@]1(NC(=O)CSCC#N)C(=O)N2C(C(=O)O)=C(CSc3nnnn3C)CS[C@@H]21` [CEFMETAZOLE] gave an MIC of 0.39 µg/mL (≈ 0.827 µM). Against the preceding molecule, the MIC is about 130-fold lower.

The subject of a further assay is Klebsiella pneumoniae. The experiment in a line: Antimicrobial activity against Klebsiella pneumoniae isolate SJ 1 after 18 to 20 hrs by microbroth dilution method.
Settings: not given
It is filed as functional.
In turn, `CO[C@@]1(NC(=O)CCCC(=O)C2=C(O)[C@@H](CCC(=O)O)NC2=O)C(=O)N2C(C(=O)O)=C(CSc3nnnn3C)CS[C@@H]21` showed an MIC of 100 µg/mL (≈ 160 µM).

Molecule `CO[C@@]1(NC(=O)CSCC#N)C(=O)N2C(C(=O)O)=C(CSc3nnnn3C)CS[C@@H]21` [CEFMETAZOLE] came in with a minimal inhibitory concentration (MIC) of 0.39 µg/mL (≈ 0.827 µM).

The next assay has as its system Pseudomonas aeruginosa. Description: Antimicrobial activity against Pseudomonas aeruginosa PAO1 after 18 to 20 hrs by microbroth dilution method. It is filed as functional.
Settings: not given
`CO[C@@]1(NC(=O)CCCC(=O)C2=C(O)[C@@H](CCC(=O)O)NC2=O)C(=O)N2C(C(=O)O)=C(CSc3nnnn3C)CS[C@@H]21` registered an MIC of more than 200 µg/mL.

In the case of `CO[C@@]1(NC(=O)CSCC#N)C(=O)N2C(C(=O)O)=C(CSc3nnnn3C)CS[C@@H]21` [CEFMETAZOLE], the MIC is more than 200 µg/mL.

The test system of a further assay is Escherichia coli. The experiment in a line: Antimicrobial activity against Escherichia coli isolate SJ 4 after 18 to 20 hrs by microbroth dilution method. It is filed as functional.
Settings: not given
The molecule `CO[C@@]1(NC(=O)CCCC(=O)C2=C(O)[C@@H](CCC(=O)O)NC2=O)C(=O)N2C(C(=O)O)=C(CSc3nnnn3C)CS[C@@H]21` gave an MIC of more than 200 µg/mL.

The molecule `CO[C@@]1(NC(=O)CSCC#N)C(=O)N2C(C(=O)O)=C(CSc3nnnn3C)CS[C@@H]21` [CEFMETAZOLE] registered an MIC of 0.78 µg/mL (≈ 1.65 µM).

Another assay has as its system Proteus mirabilis. Description: Antimicrobial activity against Proteus mirabilis ATCC 25933 after 18 to 20 hrs by microbroth dilution method. It is filed as functional.
Settings: not given
Molecule `CO[C@@]1(NC(=O)CCCC(=O)C2=C(O)[C@@H](CCC(=O)O)NC2=O)C(=O)N2C(C(=O)O)=C(CSc3nnnn3C)CS[C@@H]21` had an MIC of 50 µg/mL (≈ 79.9 µM).

In turn, `CO[C@@]1(NC(=O)CSCC#N)C(=O)N2C(C(=O)O)=C(CSc3nnnn3C)CS[C@@H]21` [CEFMETAZOLE] had an MIC of 0.39 µg/mL (≈ 0.827 µM). Compared with the last molecule, the MIC is about 130-fold lower.

The test system of the next assay is Klebsiella pneumoniae. The experiment in a line: Antimicrobial activity against Klebsiella pneumoniae isolate SJ 3 after 18 to 20 hrs by microbroth dilution method. It is filed as functional.
Settings: not given
As to `CO[C@@]1(NC(=O)CCCC(=O)C2=C(O)[C@@H](CCC(=O)O)NC2=O)C(=O)N2C(C(=O)O)=C(CSc3nnnn3C)CS[C@@H]21`, the MIC is 200 µg/mL (≈ 320 µM).

Turning to `CO[C@@]1(NC(=O)CSCC#N)C(=O)N2C(C(=O)O)=C(CSc3nnnn3C)CS[C@@H]21` [CEFMETAZOLE], the lowest concentration to inhibit growth (MIC) was 0.39 µg/mL (≈ 0.827 µM).

Another assay relates to Klebsiella pneumoniae. Description: Antimicrobial activity against Klebsiella pneumoniae isolate SJ 2 after 18 to 20 hrs by microbroth dilution method.
Settings: not given
The assay is classed as functional.
Turning to `CO[C@@]1(NC(=O)CCCC(=O)C2=C(O)[C@@H](CCC(=O)O)NC2=O)C(=O)N2C(C(=O)O)=C(CSc3nnnn3C)CS[C@@H]21`, 25 µg/mL (≈ 40 µM) was the least that counted as inhibitory (MIC).

Turning to `CO[C@@]1(NC(=O)CSCC#N)C(=O)N2C(C(=O)O)=C(CSc3nnnn3C)CS[C@@H]21` [CEFMETAZOLE], 0.39 µg/mL (≈ 0.827 µM) was the least that counted as inhibitory (MIC).

In a further assay the test system is Escherichia coli. The experiment in a line: Antimicrobial activity against Escherichia coli isolate SJ 2 after 18 to 20 hrs by microbroth dilution method.
Settings: not given
It is filed as functional.
As to `CO[C@@]1(NC(=O)CCCC(=O)C2=C(O)[C@@H](CCC(=O)O)NC2=O)C(=O)N2C(C(=O)O)=C(CSc3nnnn3C)CS[C@@H]21`, the MIC was found to be 200 µg/mL (≈ 320 µM).

`CO[C@@]1(NC(=O)CSCC#N)C(=O)N2C(C(=O)O)=C(CSc3nnnn3C)CS[C@@H]21` [CEFMETAZOLE]: the MIC turned out to be 0.78 µg/mL (≈ 1.65 µM).

Another assay relates to Klebsiella pneumoniae. Description: Antimicrobial activity against Klebsiella pneumoniae ATCC 33495 after 18 to 20 hrs by microbroth dilution method. The assay is classed as functional.
Settings: not given
Consider `CO[C@@]1(NC(=O)CCCC(=O)C2=C(O)[C@@H](CCC(=O)O)NC2=O)C(=O)N2C(C(=O)O)=C(CSc3nnnn3C)CS[C@@H]21`, for which inhibition of growth (MIC) required 200 µg/mL (≈ 320 µM).

With `CO[C@@]1(NC(=O)CSCC#N)C(=O)N2C(C(=O)O)=C(CSc3nnnn3C)CS[C@@H]21` [CEFMETAZOLE], the MIC was 3.13 µg/mL (≈ 6.64 µM).

Another assay has as its system Escherichia coli. Description: Antimicrobial activity against Escherichia coli isolate SJ 3 after 18 to 20 hrs by microbroth dilution method.
Settings: not given
The assay is classed as functional.
`CO[C@@]1(NC(=O)CCCC(=O)C2=C(O)[C@@H](CCC(=O)O)NC2=O)C(=O)N2C(C(=O)O)=C(CSc3nnnn3C)CS[C@@H]21`: 200 µg/mL (≈ 320 µM) was the least that counted as inhibitory (MIC).

With `CO[C@@]1(NC(=O)CSCC#N)C(=O)N2C(C(=O)O)=C(CSc3nnnn3C)CS[C@@H]21` [CEFMETAZOLE], the MIC is 0.78 µg/mL (≈ 1.65 µM).

In another assay the test system is Klebsiella pneumoniae. Description: Antimicrobial activity against Klebsiella pneumoniae isolate SJ 5 after 18 to 20 hrs by microbroth dilution method.
Settings: not given
The assay is classed as functional.
As to `CO[C@@]1(NC(=O)CCCC(=O)C2=C(O)[C@@H](CCC(=O)O)NC2=O)C(=O)N2C(C(=O)O)=C(CSc3nnnn3C)CS[C@@H]21`, the MIC is more than 200 µg/mL.

`CO[C@@]1(NC(=O)CSCC#N)C(=O)N2C(C(=O)O)=C(CSc3nnnn3C)CS[C@@H]21` [CEFMETAZOLE]: the MIC was found to be 1.56 µg/mL (≈ 3.31 µM).

The test system of a further assay is Escherichia coli. Description: Antimicrobial activity against tolC deficient Escherichia coli JW5503-1 after 18 to 20 hrs by microbroth dilution method. It is filed as functional.
Settings: not given
`CO[C@@]1(NC(=O)CCCC(=O)C2=C(O)[C@@H](CCC(=O)O)NC2=O)C(=O)N2C(C(=O)O)=C(CSc3nnnn3C)CS[C@@H]21`: 200 µg/mL (≈ 320 µM) was the least that counted as inhibitory (MIC).

Molecule `CO[C@@]1(NC(=O)CSCC#N)C(=O)N2C(C(=O)O)=C(CSc3nnnn3C)CS[C@@H]21` [CEFMETAZOLE] came in with an MIC of 1.56 µg/mL (≈ 3.31 µM).

A further assay deals with Escherichia coli. The experiment in a line: Antimicrobial activity against Escherichia coli isolate SJ 6 after 18 to 20 hrs by microbroth dilution method. It is filed as functional.
Settings: not given
In turn, `CO[C@@]1(NC(=O)CCCC(=O)C2=C(O)[C@@H](CCC(=O)O)NC2=O)C(=O)N2C(C(=O)O)=C(CSc3nnnn3C)CS[C@@H]21` showed an MIC of more than 200 µg/mL.

As for `CO[C@@]1(NC(=O)CSCC#N)C(=O)N2C(C(=O)O)=C(CSc3nnnn3C)CS[C@@H]21` [CEFMETAZOLE], the MIC is 12.5 µg/mL (≈ 26.5 µM).

In the next assay the test system is Klebsiella pneumoniae. The experiment in a line: Antimicrobial activity against Klebsiella pneumoniae isolate SJ 4 after 18 to 20 hrs by microbroth dilution method. It is filed as functional.
Settings: not given
For the molecule `CO[C@@]1(NC(=O)CCCC(=O)C2=C(O)[C@@H](CCC(=O)O)NC2=O)C(=O)N2C(C(=O)O)=C(CSc3nnnn3C)CS[C@@H]21`, the lowest concentration to inhibit growth (MIC) was 100 µg/mL (≈ 160 µM).

`CO[C@@]1(NC(=O)CSCC#N)C(=O)N2C(C(=O)O)=C(CSc3nnnn3C)CS[C@@H]21` [CEFMETAZOLE]: the MIC was 0.78 µg/mL (≈ 1.65 µM).

A further assay relates to Acinetobacter baumannii. Description: Antimicrobial activity against Acinetobacter baumannii ATCC 19606 after 18 to 20 hrs by microbroth dilution method. The note with it: ATCC 19606 = CIP 70.34 = JCM 6841. It is filed as functional.
With `CO[C@@]1(NC(=O)CCCC(=O)C2=C(O)[C@@H](CCC(=O)O)NC2=O)C(=O)N2C(C(=O)O)=C(CSc3nnnn3C)CS[C@@H]21`, the MIC is more than 200 µg/mL.

Molecule `CO[C@@]1(NC(=O)CSCC#N)C(=O)N2C(C(=O)O)=C(CSc3nnnn3C)CS[C@@H]21` [CEFMETAZOLE] returned an MIC of 25 µg/mL (≈ 53 µM).
